The numbers were not newly measured in patent US6224863A, “Antibiotic composition from alcaligenes species and method for making and using the same” (University of South Carolina, priority 1998, dated 2001), which cites them from elsewhere.

For data set [1], the system named is S. epidermidis. The following applies: strains of S. epidermidis.
The test system of data set [2] is Staphylococcus aureus. The following applies: strains of Staphylococcus aureus.
Data set [3] deals with other marine bacteria.
The test system of data set [4] is Vibrio harveyi.

Take `C=C(CC/C=C\C=C\CC(C)CC(=O)CC(O)CNC(=O)CC(C)OC(N)=O)CC(C)C/C(C)=C/C(=O)O` (centres unmarked) [kalimantacin C]: the antibacterial activity result in data set [1] and in data set [2] was “only effective” throughout. Regarding `Brc1[nH]c(Br)c(Br)c1Br` [tetrabromopyrrole], the antibiotic activity entry in data set [3] was “effective against other marine bacteria”. As to `CCCCCc1cc(O)c2ccccc2n1` [2-n-pentylquinolinol], the antibiotic activity result in data set [4] is given as “exhibits activity”. In the case of `C=C(CC/C=C/C=C/CC(C)CC(=O)CC(O)CNC(=O)C(C)C(C)OC(N)=O)CC(C)C/C(C)=C/C(=O)O` (centres unmarked) [kalimantacin B], the antibacterial activity result in data set [1] and in data set [2] was “only effective” throughout. As to `C=C(CC/C=C\C=C\CC(C)CC(=O)CC(O)CNC(=O)C(C)C(C)OC(N)=O)CC(C)C/C(C)=C/C(=O)O` (centres unmarked) [kalimantacin A], the antibacterial activity entry in data set [1] and in data set [2] was “only effective” throughout.
